# US20050020631A1, “3-Substituted benzofurans as therapeutic agents” (priority 2003, published 2005)
# Target: T1, p101/p110γ protein (PI3Kγ) (Homo sapiens, UniProt P48736)
# T1 construct: HA; made in house; host or cells: Spodoptera frugiperda (Sf9) cells, baculovirus coinfection
# Test: PI3Kγ In Vitro Kinase Assay
# Type: biochemical
# Conditions: purified recombinant p101/p110γ with G protein β1/γ2 subunits; 20 μM ATP, [γ-32P-ATP]; 25 μM PIP2 lipid micelles; 20 minutes at room temperature
# Method: Spodtera frugiperda cells, grown in ESF921 media, were coinfected with baculovirus expressing a glu-tagged p101 and baculovirus expressing an HA-tagged p110γ, at a 3:1 ratio of p101 baculovirus to p110γ baculovirus. Sf9 cells were grown to 1×10^7 total cells/mL in 10L bioreactors and harvested 48-72 hours post infection. Samples of infected cells were then tested for expression of p101/p110γ PI3 kinase by immunoprecipitation and Western Blot analysis methods (see below). To purify PI3Kγ, 4 volumes of room temperature hypotonic lysis buffer (1 mM MgCl2, 1 mM DTT, 5 mM EGTA, 1 mM Pefabloc, 0.5 μM aprotinin, 5 μM leupeptin, 2 μM pepstatin, 5 μM E64, pH 8) per gram of cell paste, was poured onto frozen cell pellets with stirring, then lysed in a nitrogen “bomb” at 400 psi (599HC […], Parr Instrument Co, Moline, Ill.). NaCl was added to 150 mM, and sodium cholate was added to 1% and mixed for another 45 minutes. The lysates were clarified by centrifugation for 25 minutes at 14,000 rpm. The lysates were then loaded over anti-glu-linked Protein-G Sepaharose beads (Covance Research Products, Richmond, Calif.) using 20 mL resin/50 g cell paste. The column was washed with 15 volumes of wash buffer (1 mM DTT, 0.2 mM EGTA, 1 mM Pefabloc, 0.5 μM aprotinin, 5 μM leupeptin, 2 μM pepstatin, 5 μM E64, 150 mM NaCl, 1% sodium cholate, pH 8). PI3Kγ was eluted with 6 column volumes of wash buffer that contain 100 μg/mL of a peptide that competes for binding of the glu tag. The column fractions with the eluted protein (determined by taking OD280 readings) were collected and dialyzed in 0.2 mM EGTA, 1 mM DTT, 1 mM Pefabloc, 5 μM leupeptin, 0.5% sodium cholate, 150 mM NaCl, and 50% glycerol, pH 8. The fractions were stored at -80° C. until further use. Spodtera frugiperda cells were coinfected with baculovirus expressing a glu-tagged G protein β1 and baculovirus expressing a G protein […], at a 1:1 ratio of glu-tagged G protein β1 baculovirus to G protein β2 baculovirus. Sf9 cells are grown in 10 L bioreactors and harvested 48-72 hours post infection. Samples of infected cells were tested for G protein β1/β2 expression by Western Blot analysis, as described below. Cell lysates were homogenized and loaded onto a column of glu-tagged beads as in Biological Example 1 and competed off the column with a glu peptide and processed as described in Biological Example 1. The inhibitory properties of the compounds in Table 1 were assayed in an in vitro PI3K assay. In a 96-well polypropylene plate, each well was spotted with 2 μL of 50 times the desired final concentration of compound in DMSO. Purified recombinant p101/p110γ protein (0.03 μg; 2.7 nM) and G protein β1/γ2 subunits (0.09 μg; 57.7 nM) for each reaction was combined in the assay buffer (30 mM HEPES, 100 mM NaCl, 1 mM EGTA, and 1 mM DTT). ATP and [γ-^32P-ATP] (0.09 μCi) were added to this mixture so that the final ATP concentration in the reaction was 20 μM. Lipid micelles were formed by sonicating phosphatidylinositol-4,5-diphosphate (PIP2), phosphatidylethanolamine (PE), and Na-cholate in the assay buffer for 10 minutes, adding MgCl2 and incubating on ice for 20 minutes, for final concentrations of 25 μM PIP2, 300 μM PE, 0.02% Na-cholate, and 10 mM MgCl2 in the reaction. The reactions were started by adding equal volumes lipid and enzyme mixture in a total volume of 50 μL, allowed to run for 20 minutes at room temperature, and stopped with 100 μL 75 mM H3PO4. The lipid product was transferred to a glass fiber filter plate and washed with 74 mM H3PO4 several times. The presence of radioactive lipid product (PIP3) was measured by adding Wallac Optiphase mix to each well and counting in a Wallac 1450 Trilux plate reader (PerkinElmer Life Sciences Inc., Boston, Mass. 02118). The IC50 for each compound tested is reported in μM in Table 1: […]
# T1 sequence (P48736 whole entry, species assumed): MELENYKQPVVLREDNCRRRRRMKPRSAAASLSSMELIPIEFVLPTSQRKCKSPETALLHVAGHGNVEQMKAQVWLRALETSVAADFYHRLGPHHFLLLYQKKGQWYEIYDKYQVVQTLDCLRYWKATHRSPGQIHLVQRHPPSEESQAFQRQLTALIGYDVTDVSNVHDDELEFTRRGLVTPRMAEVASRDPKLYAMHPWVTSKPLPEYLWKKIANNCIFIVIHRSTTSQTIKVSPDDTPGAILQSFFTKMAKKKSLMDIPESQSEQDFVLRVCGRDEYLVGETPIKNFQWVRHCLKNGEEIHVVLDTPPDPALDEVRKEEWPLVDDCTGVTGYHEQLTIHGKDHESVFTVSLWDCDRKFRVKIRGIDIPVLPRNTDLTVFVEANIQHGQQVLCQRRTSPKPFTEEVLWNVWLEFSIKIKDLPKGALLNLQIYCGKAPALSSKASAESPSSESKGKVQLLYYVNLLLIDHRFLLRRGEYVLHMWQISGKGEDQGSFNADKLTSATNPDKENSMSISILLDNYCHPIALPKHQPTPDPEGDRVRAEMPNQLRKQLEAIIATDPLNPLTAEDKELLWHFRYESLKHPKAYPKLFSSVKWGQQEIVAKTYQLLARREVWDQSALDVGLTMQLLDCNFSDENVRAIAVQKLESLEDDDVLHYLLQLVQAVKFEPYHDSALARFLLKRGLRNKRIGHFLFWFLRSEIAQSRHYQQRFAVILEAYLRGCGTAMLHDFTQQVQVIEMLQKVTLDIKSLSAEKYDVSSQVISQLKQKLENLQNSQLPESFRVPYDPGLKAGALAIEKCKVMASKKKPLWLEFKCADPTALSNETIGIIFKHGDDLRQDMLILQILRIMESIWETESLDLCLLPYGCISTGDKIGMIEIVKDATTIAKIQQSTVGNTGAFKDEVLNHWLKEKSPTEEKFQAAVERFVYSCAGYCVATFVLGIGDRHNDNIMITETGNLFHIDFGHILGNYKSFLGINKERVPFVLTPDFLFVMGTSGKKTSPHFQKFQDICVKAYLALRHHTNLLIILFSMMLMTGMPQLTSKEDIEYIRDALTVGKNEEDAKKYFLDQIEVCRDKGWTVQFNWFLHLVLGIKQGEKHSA
# T1 sequence (Q8WYR1 whole entry partner, species assumed): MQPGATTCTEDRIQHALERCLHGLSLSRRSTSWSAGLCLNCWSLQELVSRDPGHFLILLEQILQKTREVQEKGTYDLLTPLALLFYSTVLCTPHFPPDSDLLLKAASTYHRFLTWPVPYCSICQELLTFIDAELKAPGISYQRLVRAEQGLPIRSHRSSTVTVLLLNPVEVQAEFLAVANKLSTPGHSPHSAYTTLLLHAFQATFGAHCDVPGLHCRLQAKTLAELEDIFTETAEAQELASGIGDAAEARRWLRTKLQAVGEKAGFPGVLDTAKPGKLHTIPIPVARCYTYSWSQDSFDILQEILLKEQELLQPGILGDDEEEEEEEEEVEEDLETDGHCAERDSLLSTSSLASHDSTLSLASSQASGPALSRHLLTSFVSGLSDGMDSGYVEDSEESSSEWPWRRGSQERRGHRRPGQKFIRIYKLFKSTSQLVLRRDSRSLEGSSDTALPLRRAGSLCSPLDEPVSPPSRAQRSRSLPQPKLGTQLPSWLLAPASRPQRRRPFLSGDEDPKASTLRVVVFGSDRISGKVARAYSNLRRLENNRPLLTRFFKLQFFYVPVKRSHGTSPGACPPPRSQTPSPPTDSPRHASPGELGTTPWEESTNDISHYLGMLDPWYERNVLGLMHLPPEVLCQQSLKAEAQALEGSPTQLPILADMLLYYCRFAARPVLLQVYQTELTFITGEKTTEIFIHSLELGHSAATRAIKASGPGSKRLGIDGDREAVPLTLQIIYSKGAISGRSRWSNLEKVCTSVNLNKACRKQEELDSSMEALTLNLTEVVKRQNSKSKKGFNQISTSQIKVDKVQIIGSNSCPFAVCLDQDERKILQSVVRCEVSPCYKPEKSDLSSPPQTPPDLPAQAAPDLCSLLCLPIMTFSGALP
row,Compound,IC50 [nM]
1,5-Methoxy-3-(6-methyl-cyclohex-3-enylmethoxy)-benzofuran-2-carboxylic acid (1H-tetrazol-5-yl)-amide [Example 16],185
2,"O=C(Nc1nnn[nH]1)c1oc2ccc(Cl)cc2c1OC1CCCCC1 [Example 42, 5-Chloro-3-cyclohexyloxy-benzofuran-2-carboxylic acid (1H-tetrazol-5-yl)-amide]",645
3,"O=C(Nc1nnn[nH]1)c1oc2ccc(Cl)cc2c1OC1CCCCCC1 [Example 36, 5-Chloro-3-cycloheptyloxy-benzofuran-2-carboxylic acid (1H-tetrazol-5-yl)-amide]",950
4,"COc1ccc2oc(C(=O)Nc3nnn[nH]3)c(OC3CC(C)CC(C)C3)c2c1 (stereo not drawn) [Example 17, 3-(3,5-Dimethyl-cyclohexyloxy)-5-methoxy-benzofuran-2-carboxylic acid (1H-tetrazol-5-yl)-amide]",100
5,"CC1CCC(Oc2c(C(=O)Nc3nnn[nH]3)oc3ccc(Cl)cc23)CC1C (stereo not drawn) [Example 40, 5-Chloro-3-(3,4-dimethyl-cyclohexyloxy)-benzofuran-2-carboxylic acid (1H-tetrazol-5-yl)-amide]",1100
6,3-Cycloheptyloxy-5-methoxy-benzofuran-2-carboxylic acid (1H-tetrazol-5-yl)-amide [Example 26],97
7,"C=C(C)C1CCC(C)C(Oc2c(C(=O)Nc3nnn[nH]3)oc3ccc(OC)cc23)C1 (stereo not drawn) [Example 7, 3-(5-Isopropenyl-2-methyl-cyclohexyloxy)-5-methoxy-benzofuran-2-carboxylic acid (1H-tetrazol-5-yl)-amide]",700
8,"CC(Oc1c(C(=O)Nc2nnn[nH]2)oc2ccc(Cl)cc12)C1CCCC1 (stereo not drawn) [Example 39, 5-Chloro-3-(1-cyclopentyl-ethoxy)-benzofuran-2-carboxylic acid (1H-tetrazol-5-yl)-amide]",2700
9,"COc1ccc2oc(C(=O)Nc3nnn[nH]3)c(OC3CCCCC3C)c2c1 (stereo not drawn) [Example 5, 5-Methoxy-3-(2-methyl-cyclohexyloxy)-benzofuran-2-carboxylic acid (1H-tetrazol-5-yl)-amide]",180
10,"O=C(Nc1nnn[nH]1)c1oc2ccc(Cl)cc2c1OCC1CCC1 [Example 35, 5-Chloro-3-cyclobutylmethoxy-benzofuran-2-carboxylic acid (1H-tetrazol-5-yl)-amide]",3100
11,"O=C(Nc1nnn[nH]1)c1oc2ccc(Cl)cc2c1OCC1CC1 [Example 44, 5-Chloro-3-cyclopropylmethoxy-benzofuran-2-carboxylic acid (1H-tetrazol-5-yl)-amide]",9420
12,"COc1ccc2oc(C(=O)Nc3nnn[nH]3)c(OC3CCCC3C)c2c1 (stereo not drawn) [Example 8, 5-Methoxy-3-(2-methyl-cyclopentyloxy)-benzofuran-2-carboxylic acid (1H-tetrazol-5-yl)-amide]",305
13,"CC1CC(C)CC(Oc2c(C(=O)Nc3nnn[nH]3)oc3ccc(Cl)cc23)C1 (stereo not drawn) [Example 41, 5-Chloro-3-(3,5-dimethyl-cyclohexyloxy)-benzofuran-2-carboxylic acid (1H-tetrazol-5-yl)-amide]",480
14,5-Methoxy-3-(1-methyl-cyclomethoxy)-benzofuran-2-carboxylic acid (1H-tetrazol-5-yl)-amide [Example 24],220
15,"O=C(Nc1nnn[nH]1)c1oc2ccc(Cl)cc2c1OC1CCC1 [Example 37, 5-Chloro-3-cyclobutoxy-benzofuran-2-carboxylic acid (1H-tetrazol-5-yl)-amide]",2020
16,"O=C(Nc1nnn[nH]1)c1oc2ccc(Cl)cc2c1OCC1CCCC1 [Example 38, 5-Chloro-3cyclopentylmethoxy-benzofuran-2-carboxylic acid (1H-tetrazol-5-yl)-amide]",1040
17,"COc1ccc2oc(C(=O)Nc3nnn[nH]3)c(OC3CCCC(C)C3)c2c1 (stereo not drawn) [Example 14, 5-Methoxy-3-(3-methyl-cyclohexyloxy)-benzofuran-2-carboxylic acid (1H-tetrazol-5-yl)-amide]",67
18,"COc1ccc2oc(C(=O)Nc3nnn[nH]3)c(OC3CCCCC3C)c2c1 (stereo not drawn) [Example 18, 5-Methoxy-3-(2-methyl-cyclohexyloxy)-benzofuran-2-carboxylic acid (1H-tetrazol-5-yl)-amide]",130
19,3-Cycloheptylmethoxy-5-methoxy-benzofuran-2-carboxylic acid (1H-tetrazol-5-yl)-amide [Example 29],108
20,5-Chloro-3(1-methyl-cyclopropoxymethoxy)-benzofuran-2-carboxylic acid (1H-tetrazol-5-yl)-amide [Example 34],1460

# Tested on: not given
# Test: not given
# Conditions: not given
row,Compound,melting point [°C]
1,"O=C(Nc1nnn[nH]1)c1oc2ccc(Cl)cc2c1OCC1CC1 [Example 44, 5-Chloro-3-cyclopropylmethoxy-benzofuran-2-carboxylic acid (1H-tetrazol-5-yl)-amide]",243 to 244
